This note sets out measurements from patent US20250027045A1, “ESTABLISHMENT OF ERYTHROID PRECURSOR CELL LINE CAPABLE OF CONDITIONAL MATURATION USING GENE OVEREXPRESSION” (IUCF-HYU (INDUSTRY-UNIVERSITY COOPERATION FOUNDATION …, priority 2021, published 2025).

Where two headings read alike, the source gives them in different places.

The subject of test [1] is Cord blood-derived CD34+ cells. The experiment in a line: Flow cytometry of CD71 marker: proportion of immature erythroblasts. The test is classed as cell-based, human. Conditions: day 17, flow cytometry. The protocol: The following antibodies were used: glycophorin A (GPA; CD235a)-FITC (Life Technologies Inc., Gaithersburg, MD); and CD71-PE (BioLegend Inc., San Diego, CA). The cells were washed with 0.1% BSA, then antibodies were added and stained for 15 minutes at 4° C., while blocking light. In addition, a fluorescence microscope (Nikon Eclipse Ti; Nikon Corporation) was used to confirm the GFP fluorescence expressed in the cells cultured in the plate.
There is an TGF-β inhibitor (LY2157299) which is known to be effective in the maintenance and proliferation of immature erythroblasts, and a PPAR-α agonist (GW7647) that may have a synergistic effect on the proliferation of immature erythroblasts with glucocorticoid was explored, and an experiment was performed on the effects of the two substances. First, the two substances were added to a typical CD34+ cell culture under different conditions and cultured. In terms of cell proliferation, the cells proliferated the most by 1,500-fold by day 15 of culture when the culture was performed by adding the two substances together, and the cells proliferated by 1,000-fold by day 13 of culture in the experimental group where only the TGF-β inhibitor was added. […]
Background: In flow cytometry, cells or beads pass a laser one at a time.

In test [2] the test system is Cord blood-derived CD34+ cells. Briefly: Proliferation of typical CD34+ cell culture with or without TGF-β inhibitor and PPAR-α agonist (cumulative cell number). The test is classed as cell-based, human. Here is the method: HSCs were cultured for one to three days in a medium containing StemSpan SFEM (Stemcell Technologies) with 6 IU/ml EPO (Calbiochem, San Diego, CA), 100 ng/ml SCF (R&D Systems, Minneapolis, MN), and 10 ng/ml IL-3 (R&D Systems). Then, 5×10^4 cells were transduced with the virus concentrated in the above culture medium and polybrenc (8 μg/ml, Sigma). The multiplicity of infection (MOI) of the virus during transduction was calculated to be 15 to 30. 24 hours after the transduction, the medium was replaced with a fresh virus-free medium, and from day 5 of culture, the StemSpan SFEM medium was supplemented with 3 IU/ml EPO, 50 ng/ml SCF, 10^−6 M dexamethasone, and 250 nM TGF-β inhibitor (LY2157299, PeproTech, Rocky Hill, NJ), 10 μM PPAR-α agonist (GW7647, Sigma), and 1 μg/ml doxycycline (Takara Bio Inc.) to induce selective expression of HPV16 E6/E7 in the transduced cells. The efficiency of transduction was confirmed on day 7 of culture through GFP fluorescence expression of GFP-transduced cells, and the cells were maintained at a concentration of 2 to 3×10^5 cells/ml while replacing the medium with a fresh medium every two to three days. In addition, to obtain the cell proliferation and survival rate, the cells were stained with trypan blue (Gibco) and counted. […]

For test [3], the system named is E6/E7-transduced cells.
Excerpt: Some of the cells in culture were spread on a slide using a cell centrifuge (Cellspin; Hanil Science Industrial Co. Ltd., Incheon, Korea) and stained with a Wright-Giemsa stain (Sigma), and the state, shape, and maturity of the cells were confirmed in a blind manner. Cell photos were taken using an optical microscope (Nikon Eclipse TE2000-U; Nikon Corporation).
In addition, the immature erythroblast marker CD71 was attached to the proliferating cells, and the proportion of immature erythroblasts was confirmed through flow cytometry.

For the compound `CC(C)(Sc1ccc(CCN(CCCCC2CCCCC2)C(=O)NC2CCCCC2)cc1)C(=O)O` [PPAR-α agonist, GW7647], the “proportion of immature erythroblasts (CD71)” value in test [1] worked out at 53%. Also, the proliferation rate in test [2] (day not given) was 500 fold.
`Cc1cccc(-c2nn3c(c2-c2ccnc4ccc(C(N)=O)cc24)CCC3)n1` [TGF-β inhibitor, LY2157299]: the “immature erythroblasts, % of all cells” value in test [3] (day 28 of culture) worked out at 26.7%; in test [3] (day 33 of culture), 15.2%. Further, the cell proliferation in test [2] (by day 13 of culture) is recorded as 1,000 fold.
